Each structure is given as a SMILES string.

Data set [1] relates to Human normal hepatic sinusoid-like microvascular endothelial cells. The data set is classed as cell-based. Particulars: 2 days, 300 nM. Here is the method:
The Cytotoxicity Inhibition Test in Human Normal Hepatic Sinusoid-Like Microvascular Endothelial Cells
(§1) Human normal hepatic sinusoid-like microvascular endothelial cells were plated at 6000 cells/well in a collagen-coated 96-well culture plate. After one day of culture, the medium at each well was completely removed by aspiration and replaced with 50 μL of the compound solution diluted with the basal medium. The basal medium containing 0.1% DMSO was added to control wells. Following, the plate was incubated in CO2 incubator for 30 minutes. Fifty microliter of 2 mM methylamine diluted with the basal medium was added (final concentration 1 mM) to each negative control well (0% inhibition) as well as the compound-containing well, and 50 μL of the basal medium was added to each positive control well (100% inhibition). The plate was incubated in CO2 incubator for 2 days. Ten microliter of CCK-8 was added to each well and the mixtures were incubated in a plate incubator at 37° C. for approximately 2 hours after stirring with a plate shaker. The absorbance of the mixtures at 450 nm was measured with a multiplate reader. The cytotoxicity inhibition ratio of the compound was calculated from the following equation. Inhibition ratio={[Average absorbance of the compound-containing wells]−[Average absorbance of negative control wells]}/{[Average absorbance of positive control wells]−[Average absorbance of negative control wells]}×100

A short description of data set [2]: in vivo. Also on record: species or system SD rats. To be noted: SD, rat, po, 3 mg/kg. Here is the method:
Rat Pharmacokinetic (PK) Study (Concentration of Compound in Plasma after Oral Administration)
Seven to eight week old SD rats (weighing 180 to 250 g) were orally administered with a suspension of the compound in 0.5 W/V % methylcellulose 400 solution. Under anesthesia, the blood was collected from the jugular vein in EDTA tubes at 0.25, 0.5, 1, 2, 4, 6, 8 and 24 hours after the administration of the compound. The blood was centrifuged at 4° C. and 6000 g for 3 minutes to give plasma. Acetonitrile was added to the plasma, and the mixture was stirred with a shaker at 750 rpm for 3 minutes and was deproteinized by centrifugation at 3700 rpm for 2 minutes. Thus, the obtained sample was analyzed by LC/MS under the following conditions.
The concentration of the compound in the plasma at each blood sampling time was determined by an internal standard method, and AUC all (Area Under Curve) was calculated by a trapezoidal method.
The following LC and MS systems were used for measurement.
LC: CBM 30 series manufactured by Shimadzu Corporation
Column: Phenomenex Kinetex C18 (50×2.1 mm, 2.6 μm)
Column temperature: 40° C.
Mobile phase A: 0.1% aqueous formic acid solution, mobile phase B: 0.1% formic acid,
50% acetonitrile/methanol mixture
MS: 3200 manufactured by SCIEX

The test system of data set [3] is Human normal glomerular microvascular endothelial cells. Format: cell-based. Particulars: 2 days, 100 nM. As to the method:
The Cytotoxicity Inhibition Test in Human Normal Glomerular Microvascular Endothelial Cells
as §1, with “glomerular” for “hepatic sinusoid-like”

Data set [4] deals with T1, Rat Plasma VAP-1 (Rattus norvegicus, UniProt O08590).
T1 construct: from tissue; host or cells: plasma of SD male rats (7-12 weeks old) after oral dosing
T1 sequence (O08590 28-763 limits assumed): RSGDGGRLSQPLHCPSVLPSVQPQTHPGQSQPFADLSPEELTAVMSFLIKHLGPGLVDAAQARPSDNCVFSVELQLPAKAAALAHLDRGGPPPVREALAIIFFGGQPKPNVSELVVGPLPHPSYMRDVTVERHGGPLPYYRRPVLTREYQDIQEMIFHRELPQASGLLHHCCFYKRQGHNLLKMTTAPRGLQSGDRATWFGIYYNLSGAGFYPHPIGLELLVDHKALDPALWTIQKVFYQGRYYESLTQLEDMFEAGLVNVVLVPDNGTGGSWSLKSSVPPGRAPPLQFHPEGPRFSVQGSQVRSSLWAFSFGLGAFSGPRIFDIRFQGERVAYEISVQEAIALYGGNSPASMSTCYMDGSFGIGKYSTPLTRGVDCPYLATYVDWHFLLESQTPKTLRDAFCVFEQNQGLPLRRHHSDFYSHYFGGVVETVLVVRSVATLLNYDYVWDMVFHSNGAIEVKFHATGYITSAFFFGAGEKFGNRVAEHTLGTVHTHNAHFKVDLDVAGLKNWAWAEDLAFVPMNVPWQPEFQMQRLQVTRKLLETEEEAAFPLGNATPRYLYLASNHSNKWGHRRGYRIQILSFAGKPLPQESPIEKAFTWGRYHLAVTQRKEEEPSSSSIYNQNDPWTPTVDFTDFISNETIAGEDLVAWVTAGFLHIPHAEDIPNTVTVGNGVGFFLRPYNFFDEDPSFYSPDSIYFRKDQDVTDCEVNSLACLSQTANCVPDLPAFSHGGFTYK
Briefly: (Ex vivo) rat plasma VAP-1 inhibition test after oral administration of the compound. The data set is classed as in vivo. To be noted: 3 hours after oral administration, SD male rats, read-out: inhibition ratio (plasma VAP-1, ex vivo). The procedure, abridged: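 Male SD rats, 7–12 weeks, non-fasted, dosed orally at 0.3–10 mg/kg; jugular blood taken predose and 3, 8 and 24 h after dosing. Plasma incubated with 2.5 μM 14C-benzylamine for 3 h at 37 °C; extracted product counted by scintillation. Inhibition expressed relative to each animal's predose plasma activity.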

For orientation: AUC means the area under the concentration-time curve, a measure of exposure. For the compound `CON=C1CN(c2ncc(-c3cccc(COC(=O)NC(=N)N)c3F)cc2F)C1` [Example 36, 2-fluoro-3-{5-fluoro-6-[3-(methoxyimino)azetidin-1-yl]pyridin-3-yl}benzyl carbamimidoylcarbamate], the cytotoxicity inhibition ratio in data set [1] and in data set [3] was not below 50% each time. The compound also displayed an AUC in data set [2] not below 1000 ng·h/mL. Also, in data set [4], the inhibition in vivo at 0.3 mg/kg was not below 50%.

On to `[2H]C([2H])([2H])ON=C1CN(c2ncc(-c3cccc(COC(=O)NC(=N)N)c3F)cc2F)C1` [Example 37, 2-fluoro-3-(5-fluoro-6-{3-[(methoxy-d3)imino]azetidin-1-yl}pyridin-3-yl)benzyl carbamimidoylcarbamate], for which the cytotoxicity inhibition ratio in data set [1] and in data set [3] was not below 50% each time. Further, the AUC in data set [2] is not below 1000 ng·h/mL. For the same compound, the inhibition in vivo at 0.3 mg/kg in data set [4] was not below 50%.

For `N=C(N)NC(=O)OCc1cccc(-c2cnc(N3CC(=NOCCC(O)CO)C3)c(F)c2)c1F` (centres unmarked) [Example 95, 3-(6-{3-[(3,4-Dihydroxybutoxy)imino]azetidin-1-yl}-5-fluoropyridin-3-yl)-2-fluorobenzyl carbamimidoylcarbamate], the cytotoxicity inhibition ratio in data set [1] and in data set [3] was not below 50% in each case. The same compound yielded an AUC in data set [2] not below 1000 ng·h/mL. In addition, the inhibition in vivo at 0.3 mg/kg in data set [4] is not below 50%.

On to `N=C(N)NC(=O)OCc1cccc(-c2cnc(N3CC(=NOCC(CO)CO)C3)c(F)c2)c1F` [Example 96, 2-Fluoro-3-{5-fluoro-6-[3-{[3-hydroxy-2-(hydroxymethyl)propoxy]imino}azetidin-1-yl]pyridin-3-yl}benzyl carbamimidoylcarbamate], for which the cytotoxicity inhibition ratio in data set [1] and in data set [3] was not below 50% in each case. Also, the AUC in data set [2] was not below 1000 ng·h/mL. Moreover, the inhibition in vivo at 0.3 mg/kg in data set [4] was not below 50%.

As to `N=C(N)NC(=O)OCc1cccc(-c2cnc(N3CC(=NOCC(F)CO)C3)nc2)c1F` (centres unmarked) [Example 102, 2-Fluoro-3-(2-{3-[(2-fluoro-3-hydroxypropoxy)imino]azetidin-1-yl}pyrimidin-5-yl)benzyl carbamimidoylcarbamate], the cytotoxicity inhibition ratio in data set [1] and in data set [3] was not below 50% each time. Further, the AUC in data set [2] is not below 1000 ng·h/mL. For the same compound, in data set [4], the inhibition in vivo at 0.3 mg/kg was not below 50%.

Values taken from US10759781B2, “Substituted guanidine derivatives” (UBE INDUSTRIES, LTD., priority 2015, dated 2020).
